Here are results for twelve compounds from EP4722211A1, “FGFR2/3 SELECTIVE INHIBITOR, PHARMACEUTICAL COMPOSITION AND USE THEREOF” (Changchun Genescience Pharmaceutical Co., Ltd., priority 2023, dated 2024).

Read-outs that look alike come from different tables or passages of the source.

Series [1] has as its system Ba/F3-FGFR3 cells. The series can be described thus: Cell proliferation inhibition, CTG method (Ba/F3-FGFR3). The format is cell-based. As to conditions: 72 hrs. The protocol: (§1) The CTG method was used to detect the inhibitory effect of the compound on the proliferation of Ba/F3-FGFR1, Ba/F3-FGFR2, Ba/F3-FGFR3, and Ba/F3-FGFR4 cells. The highest concentration tested was 3000 nM, which was three-fold diluted to give 10 concentrations. The test was duplicated.
• a) Ba/F3-FGFR1, Ba/F3-FGFR2, Ba/F3-FGFR3, and Ba/F3-FGFR4 were cultured to exponential growth period for later use. Complete medium: RPMI1640 medium, 10% FBS, 1% GlutaMAX and P/S, 10 ng/mL FGF1, 10 µg/mL Heparin,10 µM 2-mercaptoethanol, 2 µg/mL puromycin. • b) The stock solution of the compound of 3000 nM was diluted into a 384 cell culture plate using the ECHO liquid handling station, and centrifuged at 1000 g for 1 min. • c) The cells were digested. 30 µL of Ba/F3-FGFR1, Ba/F3-FGFR2, Ba/F3-FGFR3, or Ba/F3-FGFR4 (500/well) was uniformly seeded in a 384-well black-edge cell culture plate containing the compound, having the wells at the edge blocked with 50 µL PBS, and cultured in an incubator with CO2 at 37°C for 72 hrs. • d) 30 µL of Cell-Titer-Glo reagent was added to each well, shaken and mixed evenly on a shaker, and then incubated at 37°C for 30 min. Then the signal was detected on a microplate reader after the signal was stable.

The subject of series [2] is Ba/F3-FGFR4 cells. The series is described as follows: Cell proliferation inhibition, CTG method (Ba/F3-FGFR4). Format: cell-based. The note with it: 72 hrs. Here is the method: as §1
(§2) • a) Ba/F3-FGFR1, Ba/F3-FGFR2, Ba/F3-FGFR3, and Ba/F3-FGFR4 were cultured to exponential growth period for later use. […] 30 µL of Ba/F3-FGFR1, Ba/F3-FGFR2, Ba/F3-FGFR3, or Ba/F3-FGFR4 (500/well) was uniformly seeded in a 384-well black-edge cell culture plate containing the compound, having the wells at the edge blocked with 50 µL PBS, and cultured in an incubator with CO2 at 37°C for 72 hrs. • d) 30 µL of Cell-Titer-Glo reagent was added to each well, shaken and mixed evenly on a shaker, and then incubated at 37°C for 30 min. Then the signal was detected on a microplate reader after the signal was stable.

Series [3] concerns Ba/F3-FGFR1 cells. The series is described as follows: Cell proliferation inhibition, CTG method (Ba/F3-FGFR1). Format: cell-based. The note with it: 72 hrs. The protocol:
as §1, §2

Series [4] relates to Ba/F3-FGFR2 cells. The series is described as follows: Cell proliferation inhibition, CTG method (Ba/F3-FGFR2). Format: cell-based. The note with it: 72 hrs. The protocol: as §1, §2
Series [5] can be described thus: Pharmacokinetic study in SD rats after oral gavage, plasma by LC/MS/MS. The format is in vivo. As to conditions: rat, 2 mg/kg, 2mpk; for AUC(0-inf): read-out: AUCINF_pred; for MRT inf: read-out: MRTINF_pred. The protocol:
The SD rats were used as test animals. The drug concentration in plasma at different time points was determined by LC/MS/MS method after the compound of the present invention was administered to the SD rats by oral gavage. The pharmacokinetic behavior of the compound of the present invention in SD rats was studied and the pharmacokinetic characteristics were evaluated.
24 SD Rat rats (female:male 1:1), purchased from Shanghai Ji Hui Laboratory Animal Breeding Co., Ltd., animal production license SCXK (Shanghai) 2017-0012, were divided into 6 groups.
The prescription was 5% DMSO + 60% PEG300 + 35% glucose aqueous solution. A proper amount of the representative compound of the present invention (converted according to the purity and salt coefficient) was weighed. A prescribed amount of DMSO was added, and a clear and transparent solution was obtained by vortex. Then a prescribed amount of PEG300 was added, and mixed by vortex. Then, a prescribed amount of a glucose aqueous solution was added. A 0.6 mg/mL or 2 mg/mL solution was obtained. During the preparation, if a solution cannot be obtained, ultrasonication in a water bath at a temperature not higher than 60°C can be performed to facilitate the dissolution.
Rats were administered by oral gavage (2mpk) after fasting for one night.
At 15 min, 30 min, 1 hr, 2 hrs, 4 hrs, 6 hrs, 8 hrs, and 24 hrs after administration, about 30 µL blood samples were collected into an anticoagulation tube containing the anticoagulant EDTA-K2, and centrifuged within 30 minutes to obtain the plasma. The whole blood sample was placed on wet ice before centrifugation. All of the collected plasma samples were stored on dry ice or at a temperature not higher than -70°C before analysis and detection. Liquid chromatography-tandem mass spectrometry (LC/MS/MS) was used to determine the original drug concentration in the plasma and the administered solution.

Series [6] deals with T1, FGFR1 (Homo sapiens, UniProt P11362).
T1 construct: purchased Invitrogen PR4660A
T1 sequence (P11362 22-822): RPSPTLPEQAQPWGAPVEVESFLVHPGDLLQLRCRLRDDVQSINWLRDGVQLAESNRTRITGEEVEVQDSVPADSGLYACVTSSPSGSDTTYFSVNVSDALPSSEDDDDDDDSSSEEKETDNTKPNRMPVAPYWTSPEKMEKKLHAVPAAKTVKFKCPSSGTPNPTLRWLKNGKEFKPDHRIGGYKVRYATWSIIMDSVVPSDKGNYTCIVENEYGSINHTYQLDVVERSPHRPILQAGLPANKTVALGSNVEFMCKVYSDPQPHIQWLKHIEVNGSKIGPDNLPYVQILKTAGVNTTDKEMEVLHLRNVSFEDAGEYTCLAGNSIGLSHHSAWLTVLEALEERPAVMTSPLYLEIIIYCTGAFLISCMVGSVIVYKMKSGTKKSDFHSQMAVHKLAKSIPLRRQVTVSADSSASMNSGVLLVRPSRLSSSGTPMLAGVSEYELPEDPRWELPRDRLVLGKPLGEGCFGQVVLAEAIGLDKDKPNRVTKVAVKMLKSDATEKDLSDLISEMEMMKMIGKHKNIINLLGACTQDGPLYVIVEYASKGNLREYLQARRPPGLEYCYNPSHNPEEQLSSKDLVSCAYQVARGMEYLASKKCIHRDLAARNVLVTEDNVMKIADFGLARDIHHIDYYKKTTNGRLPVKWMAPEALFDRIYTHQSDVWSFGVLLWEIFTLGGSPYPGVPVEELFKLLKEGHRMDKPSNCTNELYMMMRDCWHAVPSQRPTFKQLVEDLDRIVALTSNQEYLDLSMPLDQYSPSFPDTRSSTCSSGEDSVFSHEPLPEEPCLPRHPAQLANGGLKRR
The series can be described thus: Kinase inhibitory activity by HTRF method (FGFR1). The format is biochemical. As to conditions: highest concentration 3000 nM, 10 concentrations, duplicate. The protocol: (§3) The inhibitory activity of the compounds on FGFR1 and FGFR3 kinases was tested by HTRF method. The highest concentration tested was 3000 nM, which was three-fold diluted to give 10 concentrations. The test was duplicated. […]

For series [7], the target named is T2, FGFR3 (Homo sapiens, UniProt P22607).
T2 construct: purchased Invitrogen PR4631B
T2 sequence (P22607 23-806): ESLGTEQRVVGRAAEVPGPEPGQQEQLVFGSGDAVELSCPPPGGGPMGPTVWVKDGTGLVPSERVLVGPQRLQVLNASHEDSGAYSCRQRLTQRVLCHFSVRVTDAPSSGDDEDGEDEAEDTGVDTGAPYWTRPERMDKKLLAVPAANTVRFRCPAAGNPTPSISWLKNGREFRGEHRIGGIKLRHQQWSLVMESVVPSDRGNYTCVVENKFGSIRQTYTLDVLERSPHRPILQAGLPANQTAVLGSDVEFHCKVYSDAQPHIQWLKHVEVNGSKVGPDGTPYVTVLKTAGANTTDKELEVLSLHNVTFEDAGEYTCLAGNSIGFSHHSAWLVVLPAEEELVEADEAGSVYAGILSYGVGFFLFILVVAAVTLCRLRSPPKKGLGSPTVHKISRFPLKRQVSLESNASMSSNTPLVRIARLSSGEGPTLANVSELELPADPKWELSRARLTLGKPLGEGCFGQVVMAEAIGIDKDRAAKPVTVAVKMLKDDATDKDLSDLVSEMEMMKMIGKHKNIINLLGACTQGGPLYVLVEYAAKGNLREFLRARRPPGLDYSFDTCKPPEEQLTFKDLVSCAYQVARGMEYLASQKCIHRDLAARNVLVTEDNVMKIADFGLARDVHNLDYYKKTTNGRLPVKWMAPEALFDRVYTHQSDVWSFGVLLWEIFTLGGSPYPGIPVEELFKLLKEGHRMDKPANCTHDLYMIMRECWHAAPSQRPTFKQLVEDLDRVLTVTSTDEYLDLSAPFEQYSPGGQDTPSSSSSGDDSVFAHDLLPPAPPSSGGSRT
The series can be described thus: Kinase inhibitory activity by HTRF method (FGFR3). The format is biochemical. As to conditions: highest concentration 3000 nM, 10 concentrations, duplicate. The protocol: as §3

The mark [8] stands for this setting: both sexes, Sprague-Dawley (SD).

The compound `C[C@@H](Oc1ccc2[nH]nc(-c3cnc(C4=CCS(=O)(=O)CC4)c(F)c3)c2n1)c1c(Cl)cncc1Cl` [Cpd-03A, (R)-4-(5-(5-(1-(3,5-dichloropyridin-4-yl)ethoxy)-1H-pyrazolopyridin-3-yl)-3-fluoropyridin-2-yl)-3,6-dihydro-2H-thiapyran 1,1-dioxide] displayed an IC50 in series [1] of 4.2 nM. This compound came in with an IC50 in series [2] of 33.8 nM. Further, the IC50 in series [3] came out at 14.2 nM. Moreover, the IC50 in series [4] was 8.4 nM. In addition, in series [5], the AUC(0-t) was determined as 86.2 ng·h/mL, the Cmax stood at 24.4 ng/mL, the Tmax stood at 1 h and the half-life was 90 min. Moreover, in series [5], the AUC(0-inf) stood at 91.5 ng·h/mL and the MRT inf stood at 2 h.

`Cc1nn(C2CC2)cc1-c1ccc(-c2n[nH]c3ccc(O[C@H](C)c4c(Cl)cncc4Cl)nc23)cn1` [Cpd-145A, (R)-3-(6-(1-cyclopropyl-3-methyl-1H-pyrazol-4-yl)pyridin-3-yl)-5-(1-(3,5-dichloropyridin-4-yl)ethoxy)-1H-pyrazolo[4,3-b]pyridine] registered an IC50 in series [1] of 9.7 nM. In series [2], this compound returned an IC50 of 76.3 nM. In series [3], this compound gave an IC50 of 31.4 nM. The compound further had an IC50 in series [4] of 10.6 nM. In addition, in series [5] (setting [8]), the AUC(0-t) was determined as 1570 ng·h/mL, the Cmax was determined as 186 ng/mL, the Tmax came out at 2 h and the half-life is 240 min. In series [5] (setting [8]), the AUC(0-inf) stood at 1610 ng·h/mL and the MRT inf is 5.6 h.

`Cc1nn(CC(C)(C)O)c(C)c1-c1ncc(-c2n[nH]c3ccc(O[C@H](C)c4c(Cl)cncc4Cl)nc23)cc1F` [Cpd-161A, (R)-1-(4-(5-(5-(1-(3,5-dichloropyridin-4-yl)ethoxy)-1H-pyrazolo[4,3-b]pyridin-3-yl)-3-fluoropyridin-2-yl)-3,5-dimethyl-1H-pyrazol-1-yl)-2-methyl-2-propanol]: the IC50 in series [1] was found to be 15.4 nM; in series [2], 237 nM; in series [3], 98.3 nM; in series [4], 11.7 nM.

Consider `CC(Oc1ccc2[nH]nc(-c3ccc(S(C)(=N)=O)nc3)c2n1)c1c(Cl)cncc1Cl` (single isomer, unassigned) [Cpd-01C, (5-(5-(1-(3,5-dichloropyridin-4-yl)ethoxy)-1H-pyrazolo[4,3-b]pyridin-3-yl)pyridin-2-yl)(imino)(methyl)-λ^6-sulfonyl ketone], for which the IC50 in series [6] is 34.8 nM; in series [7], 4.8 nM.

`C[C@@H](Oc1ccc2[nH]nc(-c3ccc(N4CCC(C(C)(C)O)CC4)nc3)c2n1)c1c(Cl)cncc1Cl` [Cpd-124A]: the IC50 in series [1] came to 13.6 nM; in series [2], 80.4 nM; in series [3] it was 123 nM; in series [4] it was 16.7 nM.

Turning to `C[C@@H](Oc1ccc2[nH]nc(-c3ccc(C4=CCS(=O)(=O)CC4)nc3)c2n1)c1c(Cl)cncc1Cl` [Cpd-02A, (R)-4-(5-(5-(1-(3,5-dichloropyridin-4-yl)ethoxy)-1H-pyrazolo[4,3-b]pyridin-3-yl)pyridin-2-yl)-3,6-dihydro-2H-thiopyran 1,1-dioxide], the IC50 in series [1] was found to be 5.06 nM; in series [3] it was 23.9 nM.

In turn, `Cc1cc2[nH]nc(-c3ccc(-c4c(C)nn(CC(C)(C)O)c4C)nc3)c2nc1O[C@H](C)c1c(Cl)cncc1Cl` [Cpd-175A, (R)-1-(4-(5-(5-(1-(3,5-dichloropyridin-4-yl)ethoxy)-6-methyl-1H-pyrazolo[4,3-b]pyridin-3-yl)pyridin-2-yl)-3,5-dimethyl-1H-pyrazol-1-yl)-2-methyl-2-propanol] came in with an IC50 in series [1] of 4.9 nM. In series [2], this compound registered an IC50 of 72.9 nM. The compound further returned an IC50 in series [3] of 31.5 nM. It took 3.5 nM to reach half-maximal inhibition in series [4] (IC50). Besides, in series [5] (setting [8]), the AUC(0-t) worked out at 359 ng·h/mL, the Cmax turned out to be 82.6 ng/mL, the Tmax was 2 h and the half-life is 192 min. Further, in series [5] (setting [8]), the AUC(0-inf) amounted to 508 ng·h/mL and the MRT inf amounted to 3.5 h.

Take `CCN1CCN(c2ccc(Nc3cc(N(C)C(=O)Nc4c(Cl)c(OC)cc(OC)c4Cl)ncn3)cc2)CC1` [Infigratinib, reference compound]: the midpoint of inhibition in series [1], the IC50, lay at 11.9 nM. The compound further registered an IC50 in series [2] of 277 nM. The compound further yielded an IC50 in series [3] of 8.1 nM. In series [4], this compound had an IC50 of 4 nM. In series [5] (setting [8]), the AUC(0-t) amounted to 103 ng·h/mL, the Cmax was found to be 22.2 ng/mL, the Tmax worked out at 3 h and the half-life was 66 min. Besides, in series [5] (setting [8]), the AUC(0-inf) amounted to 106 ng·h/mL and the MRT inf worked out at 3.1 h.

`C[C@@H](Oc1ccc2[nH]nc(-c3ccc(N4CCN(S(C)(=O)=O)CC4)nc3)c2n1)c1c(Cl)cncc1Cl` [Cpd-119A]: the values for the IC50 in series [1] and in series [3] were 7.3 nM and 45.9 nM, respectively.

On to `CC(Oc1ccc2[nH]nc(-c3ccc(S(C)(=N)=O)nc3)c2n1)c1c(Cl)cncc1Cl` (single isomer, unassigned) [Cpd-01D, (5-(5-(1-(3,5-dichloropyridin-4-yl)ethoxy)-1H-pyrazolo[4,3-b]pyridin-3-yl)pyridin-2-yl)(imino)(methyl)-λ^6-sulfonyl ketone], for which the IC50 in series [6] is 36.1 nM; in series [7], 6.2 nM.

Consider `Cc1nn(CC(C)(C)O)c(C)c1-c1ccc(-c2n[nH]c3ccc(O[C@H](C)c4c(Cl)cncc4Cl)nc23)cn1` [Cpd-158A], for which the IC50 in series [1] is 2.6 nM; in series [2], 55.4 nM; in series [3], 23.6 nM; in series [4], 2 nM.

Consider `Cc1nn(CC(C)(C)O)cc1-c1ncc(-c2n[nH]c3ccc(O[C@H](C)c4c(Cl)cncc4Cl)nc23)cc1F` [Cpd-162A, (R)-1-(4-(5-(5-(1-(3,5-dichloropyridin-4-yl)ethoxy)-1H-pyrazolo[4,3-b]pyridin-3-yl)-3-fluoropyridin-2-yl)-3-methyl-1H-pyrazol-1-yl)-2-methyl-2-propanol], for which the IC50 in series [1] amounted to 4 nM; in series [2], 29.8 nM; in series [3], 32.6 nM; in series [4], 3.6 nM.

Usually IC50 stands for the concentration that inhibits the measured activity by half. Higher therefore signals weaker potency. Usually AUC(0-t) stands for exposure summed from dosing to a finite time, without extrapolation to infinity. A higher AUC(0-t) goes with high exposure. Broadly, the Cmax is the highest concentration seen after dosing. Broadly, the Tmax is the time from dosing to the highest level. One may read the half-life as the time in which the quantity being followed falls by half. A low value points to fast loss.
